What was measured:
[1] = target: T1, human soluble guanylate cyclase alpha 1 and beta 1 subunits (sGC) (Homo sapiens, UniProt Q02108+Q02153); assay: sGC cellular activator assay (cGMP, HTRF); format: cell-based; conditions: CHO cells stably expressing human sGC alpha 1/beta 1, preincubated with 40 microM ODQ; cGMP readout; assay run with and without 50% human serum, Table 2 does not say which
T1 construct: expressed in transfected cells; host or cells: Chinese hamster ovary (CHO) cells, stably transfected
T1 sequence (Q02108 1-690): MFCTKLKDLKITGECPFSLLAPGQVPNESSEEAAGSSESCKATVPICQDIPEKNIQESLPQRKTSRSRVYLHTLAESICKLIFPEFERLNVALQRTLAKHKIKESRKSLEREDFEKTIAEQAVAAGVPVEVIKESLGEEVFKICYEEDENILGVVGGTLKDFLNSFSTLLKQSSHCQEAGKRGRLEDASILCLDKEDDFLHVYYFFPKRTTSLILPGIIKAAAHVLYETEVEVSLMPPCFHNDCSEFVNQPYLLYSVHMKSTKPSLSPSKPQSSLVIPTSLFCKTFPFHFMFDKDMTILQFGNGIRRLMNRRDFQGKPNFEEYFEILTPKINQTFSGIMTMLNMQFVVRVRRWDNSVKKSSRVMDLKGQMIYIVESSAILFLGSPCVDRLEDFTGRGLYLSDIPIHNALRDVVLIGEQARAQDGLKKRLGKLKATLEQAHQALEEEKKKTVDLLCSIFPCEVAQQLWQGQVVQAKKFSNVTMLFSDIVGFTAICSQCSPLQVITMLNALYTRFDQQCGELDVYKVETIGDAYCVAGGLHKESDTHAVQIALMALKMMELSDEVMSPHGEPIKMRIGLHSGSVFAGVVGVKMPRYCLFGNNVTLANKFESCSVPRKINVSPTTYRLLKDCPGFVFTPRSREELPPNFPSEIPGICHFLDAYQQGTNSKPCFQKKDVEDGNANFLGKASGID
T1 sequence (Q02153 1-619): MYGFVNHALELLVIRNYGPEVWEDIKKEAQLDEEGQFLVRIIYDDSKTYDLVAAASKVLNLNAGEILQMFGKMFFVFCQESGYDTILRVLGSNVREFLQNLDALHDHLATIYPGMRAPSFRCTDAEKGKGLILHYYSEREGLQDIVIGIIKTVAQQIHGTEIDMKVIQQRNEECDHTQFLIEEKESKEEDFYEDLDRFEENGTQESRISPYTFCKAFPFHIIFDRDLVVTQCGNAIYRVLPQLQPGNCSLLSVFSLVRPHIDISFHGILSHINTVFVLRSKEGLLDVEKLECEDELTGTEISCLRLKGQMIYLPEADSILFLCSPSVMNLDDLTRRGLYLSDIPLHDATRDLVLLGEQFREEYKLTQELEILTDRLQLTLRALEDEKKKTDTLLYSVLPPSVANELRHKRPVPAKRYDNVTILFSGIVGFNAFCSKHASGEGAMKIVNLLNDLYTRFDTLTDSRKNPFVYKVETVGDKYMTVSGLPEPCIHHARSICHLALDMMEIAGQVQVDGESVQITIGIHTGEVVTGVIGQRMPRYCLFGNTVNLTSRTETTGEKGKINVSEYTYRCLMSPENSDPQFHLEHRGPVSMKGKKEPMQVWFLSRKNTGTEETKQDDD
Procedure: The sGC cellular activator assay is performed in the presence and absence of 50% human serum (HS) using Chinese hamster ovary cells that have been stably transfected to express the human soluble guanylate cyclase alpha 1 and beta 1 subunits (sGC). Cells are preincubated with 40 microM 1H-[1,2,4]oxadiazolo[4,3-a]quinoxalin-1-one (ODQ), an sGC inhibitor, for one h in buffer containing 0.1% bovine serum albumin and 3-isobutyl-1-methylxanthine (IBMX). Concentration response curves are prepared for test compounds in DMSO. An intermediate dilution of the compounds is performed in either buffer containing IBMX or type AB HS containing IBMX. Diluted compounds are added to cells and they are incubated at room temperature for thirty min. cGMP is measured using a CisBio homogeneous time resolved fluorescence kit and the EC50 is calculated for each compound.
Representative compounds of the present invention were tested for activity the above assay. Preferred compounds have an EC50 of <1,000 nM in the above assay and more preferred compounds have an EC50<200 nM.

[2] = human liver microsome (HLM) metabolic stability assay; format: in vitro ADME; conditions: human liver microsomes; % hepatic blood flow calculated from t1/2
Procedure: The 5 time point, high-throughput human liver microsome (HLM) metabolic stability assay is designed to determine in vitro compound metabolism. Compounds are incubated with HLMs at a concentration of 1 uM, at 37° C., for a total of 60 min. The percent of compound remaining at 5, 15, 30, and 60 min is used to calculate the t½ (min), CLint (mL/min/kg), CLh (mL/min/kg), and % Qh. The assay is based on a 96-well format and can accommodate up to 92 compounds per plate (n=1).
Using the 96-well multi-channel head, the Biomek FX, equipped with a Peltier heating block/shaker, is programmed to accomplish the following steps: • 1. Pipette 175 uL of 1.15 mg/mL microsomes into each of the 96 conical inserts (Analytical Sales and Products, catalog number 96PL05) that fit into the plate of the Peltier heating block/shaker (the incubation plate) • 2. Add 5 uL of compounds from the assay plate to the microsomes and shake the mixture at 600 rpm at 42.1° C. for 10 min (a setting of 42.1° C. on the Peltier is required for the samples to incubate at 37° C.) • 3. After 10 min, prompt the user to add the NADPH plate to the deck and add 20 uL from the NADPH plate to the incubation plate to start the reaction • 4. Add 215 uL of 100%, cold acetonitrile containing an internal standard(s) to a 0 minute, 5 minute, 15 minute, 30 minute, and 60 minute “quench” plate • 5. At 0 min, 5 min, 15 min, 30 min, and 60 min into the incubation, aspirate 12 uL from the incubation mixture and add it to the quench solution to stop the reaction • 6. Add 185 uL HPLC grade water to each well of the 0, 5, 15, 30 and 60 minute quench plates to dilute compounds to the appropriate concentration for the mass spectrometer
After all time points are collected, the quench plates are sealed with 96-well pierceable plate mats or heat sealing foil and centrifuged at 3000 rpm for 15 min to pellet the microsomes.
The plates are analyzed using LC/MS/MS with electron spray ionization (ESI) and the previously determined MRM transitions. The LC method includes the following parameters:
Using an Excel template in Activitybase, the peak areas corresponding to 5, 15, 30 and 60 min are compared to the peak area at 0 min to calculate the percent of remaining compound using the following equation: Percent compound remaining=(AUC at Time t min/AUC at Time 0 min)×100 where t=0, 5, 15, 30 or 60 min.
Time (min) is plotted against the natural logarithm (Ln) of the percent compound remaining to determine the slope. The slope is used to calculate t½ (min) using the equation, t½=0.693/slope.
Preferred compounds have % Qh values of less than 24.

| EC50 [1] [nM] | HLM (% Qh) [2] [% Qh] | SMILES |
| --- | --- | --- |
| 81 | <24 | CC[C@H](C)Oc1c(C(=O)O)cnn1-c1cccc(-c2cccc(C)c2OCc2ccc3c(c2C)CCN(C2CCOCC2)C3)n1 [Compound 136] |
| 14 | <24 | COc1c(C(=O)O)cnn1-c1cccc(-c2cccc(C)c2OCc2cc(C)c3c(c2C)CCN(C2COC2)C3)n1 [Compound 178] |
| 46 | 32 | Cc1cccc(-c2cccc(-n3ncc(C(=O)O)c3OCC(C)C)n2)c1OCc1ccc2c(c1C)CCN(C1CCOCC1)C2 [Compound 134] |
| 12 | <24 | COc1c(C(=O)O)cnn1-c1cccc(-c2cccc(C)c2OCc2cc(C)c3c(c2C)CCN(C2CCOCC2)C3)n1 [Compound 120] |
| 15 | <24 | COc1c(C(=O)O)cnn1-c1cccc(-c2cccc(C)c2OCc2ccc3c(c2C)CCN([C@@H]2CCCOC2)C3)n1 [Compound 140] |
| 62 | <24 | COc1c(C(=O)O)cnn1-c1cccc(-c2cccc(C)c2OCc2ccc3c(c2C)CCN(C[C@H]2COCCO2)C3)n1 [Compound 142] |
| 39 | <24 | CCOc1c(C(=O)O)cnn1-c1cccc(-c2cccc(C)c2OCc2cc(C)c3c(c2)CN(C2CCOCC2)C3)n1 [Compound 118] |
| 40 | 31 | CCOc1c(C(=O)O)cnn1-c1cccc(-c2cccc(C)c2OCc2ccc3c(c2C)CCN(C2COC2)CC3)n1 [Compound 175] |
| 170 | 31 | COc1c(C(=O)O)cnn1-c1cccc(-c2cccc(C)c2OCc2ccc3c(c2)CCCN(C2CCOCC2)C3)n1 [Compound 100] |
| 35 | <24 | COc1c(C(=O)O)cnn1-c1cccc(-c2cccc(C)c2OCc2ccc3c(c2F)CCN(C2COC2)C3)n1 [Compound 177] |
| 110 | <24 | CCOc1c(C(=O)O)cnn1-c1cccc(-c2cccc(C)c2OCc2ccc3c(c2)CCN(CC2CCCO2)C3)n1 (centres unmarked) [Compound 101, 5-ethoxy-1-(6-{3-methyl-2-[2-(tetrahydro-furan-2-ylmethyl)-1,2,3,4-tetrahydro-isoquinolin-6-ylmethoxy]-phenyl}-pyridin-2-yl)-1H-pyrazole-4-carboxylic acid] |
| 24 | <24 | Cc1cccc(-c2cccc(-n3ncc(C(=O)O)c3OC(C)C)n2)c1OCc1ccc2c(c1)CCN([C@@H]1CCCOC1)C2 [Compound 113] |
| 67 | <24 | CCOc1c(C(=O)O)cnn1-c1cccc(-c2cccc(C)c2OCc2ccc3c(c2)CCN(CC2CC(=O)N(C)C2)C3)n1 (centres unmarked) [Compound 97, 5-ethoxy-1-(6-{3-methyl-2-[2-(1-methyl-5-oxo-pyrrolidin-3-ylmethyl)-1,2,3,4-tetrahydro-isoquinolin-6-ylmethoxy]-phenyl}-pyridin-2-yl)-1H-pyrazole-4-carboxylic acid] |
| 14 | <24 | CCOc1c(C(=O)O)cnn1-c1cccc(-c2cccc(C)c2OCc2ccc3c(c2C)CCN(C[C@@H]2CCCOC2)C3)n1 [Compound 152] |
| 270 | 31 | COc1c(C(=O)O)cnn1-c1cccc(-c2ccc(C)cc2OCc2ccc3c(c2)CCN(C2CCOCC2)C3)n1 [Compound 98] |
| 26 | <24 | COc1c(C(=O)O)cnn1-c1cccc(-c2cccc(C)c2OCc2ccc3c(c2)CCN(CC2(C)COC2)C3)n1 [Compound 12] |
| 55 | <24 | CCOc1c(C(=O)O)cnn1-c1cccc(-c2cccc(C)c2OCc2ccc3c(c2C)CCN(CC2CCOC(C)(C)C2)C3)n1 (centres unmarked) [Compound 163] |
| 91 | <24 | COCCOc1c(C(=O)O)cnn1-c1cccc(-c2cccc(C)c2OCc2ccc3c(c2C)CCN(C2CCOC2)C3)n1 (centres unmarked) [Compound 150] |
| 21 | 25 | COc1c(C(=O)O)cnn1-c1cccc(-c2cccc(C)c2OCc2ccc3c(c2)OCCN(C2CCOCC2)C3)n1 [Compound 130] |
